Source: paper PMC13046583, “SRS143 a semi-synthetic analogue of andrographolide against house dust mite induced allergic asthma” (Naunyn-Schmiedeberg's Archives of Pharmacology, 2025)
Entries after “also recorded” stand apart in the source; their conditions may differ. Each block holds one compound with its values, some of them ahead of it.

Experiments:
[1] = Cell viability (MTT) assay; type: cell-based; details: rat, RBL-2H3 cells, 1 h treatment, washed, viability measured at 24 h
Experimental: (§1) RBL-2H3 cells were maintained in Minimum Essential Media (MEM, ThermoFischer, Grand Island, NY), supplemented with 15% heat-inactivated FBS, 100 U/mL of penicillin and 100 µg/mL of streptomycin. The cytotoxicity effect of the SRS143 was carried out using the rapid colorimetric assay that measures the activity of mitochondrial dehydrogenase in living cells, which convert the pale yellow soluble tetrazolium salt MTT into a insoluble purple end product formazan.
(§2) The inhibitory activity of SRS143 and quercetin against the release of β-hexosaminidase from RBL-2H3 cells was evaluated according to the method reported previously (Lin et al. [2020]). Briefly, the cells were cultured in a 24-well cell culture plate (9 × 10^5/well, Becton–Dickinson Co., Franklin Lakes, NJ) with concentration ([…]) of mouse monoclonal anti-dinitrophenyl (DNP) IgE. After washing with PBS, SRS143 at various concentrations (0, 0.1, 1 and 10 μM)) or quercetin (30 μM) was added. After 60 min of incubation, DNP-labeled bovine serum albumin (DNP-labeled BSA, 50 ng/ml final concentration) was added, followed by 45 min of incubation. The supernatant (50 μl) was mixed with 100 μl of a 0.1 M citrate buffer (pH 4.5) containing 1 mM […] and the mixture was incubated in a 96-well plate at 37 °C for 60 min. For the calcium ionophore stimulation method, CaI A23187 was added at 5 µM to induce degranulation. Each well was replaced with 0.4 mL of MEM media and 100 µL of MTT solution to evaluate cell viability using MTT assay. Supernatants from CaI A23187-induced degranulated cells were collected, centrifuged, and reacted with PNAG in citrate buffer at 37℃ for 1 h. The reaction was stopped, and absorbance at 405 nm was measured using a microplate reader (Versamax).to assess beta-hexosaminidase activity, indicating enzyme subproduct levels. The results are expressed as percentage release of β-hexosaminidase activity amount by antigen (DNP-labeled BSA) alone.
(§3) Mast cell degranulation is the key process in allergic asthma. To induce mast cell degranulation process in RBL-2H3 cells, the cells were sensitized and challenged with DNP-labelled specific antigen IgE. Alternatively, the mast cells were induced with calcium ionophore A23187 to trigger direct degranulation independent of activation of IgE. The release was assessed with β-hexosaminidase assay whereby the amount β-hexosaminidase enzyme released correlates to histamine release by RBL-2H3 cells. In the preliminary screening, single low dose of 10 µM of AGP and its derivatives were applied to the calcium ionophore activated cells for a short duration of 1 h. Quercetin as positive control was also applied at a higher dose of 50 µM. For cell viability assay, the cells were washed and replenished with fresh medium supplemented with 15% FBS after 1 h of treatment. The cell viability was measured at 24 h. […] Given close to eightfold improved potency in inhibition of mast degranulation (Fig. 4A, B and C). We further measured the efficacy of SRS143 in a dose response study involving both efficacy and toxicity.

[2] = tested on: HDM-induced asthmatic BALB/c mice; experiment: House dust mite allergic asthma mouse model, BAL fluid total and differential cell counts; type: in vivo; details: day 7-11, n = 6; for BAL fluid airway infiltration of all inflammatory leukocytes: 1 mg/kg i.p., positive control
Experimental: (§4) BALB/c mice of 6–8 weeks of age were housed in the animal experimentation unit, Faculty of Medicine and Health Sciences, Universiti Putra Malaysia (UPM). Mice were kept in individually vented cages (1820 cm^3, not more than 6 mice per cage) with a bed of poplar shaving and free access to clean water and food. Mice were grouped into 8 groups of 6 mice per group – Group 1: Normal control, Group 2: HDM, Group 3: Vehicle (6% DMSO), Group 4: SRS143 (0.3 mg/kg), Group 5: SRS143 (1 mg/kg), Group 6: SRS143 (3 mg/kg), Group 7: dexamethasone (1 mg/kg), Group 8: andrographolide (1 mg/kg). Throughout the study, both experimental and control mice were kept under appropriate conditions (22 ± 2 °C temperature, and 55 ± 10% relative humidity). The mice were maintained under a 12-h light-darkness cycle.
Allergic asthma was induced using house dust mite (Dermatophagoides pteronyssinus, Lot Number: 253983, Greer Laboratories, Lenoir, USA). The HDM was dissolved and prepared to a concentration of 5000 µg/mL in PBS, and then it was aliquoted and frozen (−20 °C) for further use. A 14-day HDM model was used to induce asthma in Balb/c mice (Lim et al. [2016]). The animals were sub-anesthetized using a cocktail of ketamine (50 mg/kg) and xylazine (3.3 mg/kg) for the intranasal HDM sensitization and challenged protocol. Briefly, the induction involved initial intranasal administration of 100 μg HDM extract (10 μL per nostril) on day 0, and subsequent administration of 10 μg of HDM (10 μL per nostril) on day 7—11. Mice were treated with SRS143 at doses of 0.3, 1, or 3 mg/kg, or with dexamethasone (1 mg/kg) or andrographolide (1 mg/kg). All treatments were administered at a constant volume of 10 mL/kg. Bronchoalveolar lavage (BAL) fluid collection was conducted on day 14.
Fig. 3 HDM-asthma induction protocol. Animals were intranasally (i.n.) sensitized using 100 μg of house dust mite (HDM) on day 0, this was followed by daily HDM intranasal challenge (10 μg) on day 7 −11. […]
BAL fluid total and differential cell counts were determined as described (Matsuda et al. [1994]).

RBL-2H3 cells [3] = experiment: β-hexosaminidase release assay, calcium ionophore A23187 stimulation; type: cell-based
Experimental: as §2, §3

RBL-2H3 cells [4] = experiment: β-hexosaminidase release assay, IgE-FcεRI (DNP-IgE/DNP-BSA) stimulation; type: cell-based
Experimental: The inhibitory activity of SRS143 and quercetin against the release of β-hexosaminidase from RBL-2H3 cells was evaluated according to the method reported previously (Lin et al. [2020]). Briefly, the cells were cultured in a 24-well cell culture plate (9 × 10^5/well, Becton–Dickinson Co., Franklin Lakes, NJ) with concentration ([…]) of mouse monoclonal anti-dinitrophenyl (DNP) IgE. After washing with PBS, SRS143 at various concentrations (0, 0.1, 1 and 10 μM)) or quercetin (30 μM) was added. After 60 min of incubation, DNP-labeled bovine serum albumin (DNP-labeled BSA, 50 ng/ml final concentration) was added, followed by 45 min of incubation. […] The reaction was stopped, and absorbance at 405 nm was measured using a microplate reader (Versamax).to assess beta-hexosaminidase activity, indicating enzyme subproduct levels. The results are expressed as percentage release of β-hexosaminidase activity amount by antigen (DNP-labeled BSA) alone.
Mast cell degranulation is the key process in allergic asthma. […] The release was assessed with β-hexosaminidase assay whereby the amount β-hexosaminidase enzyme released correlates to histamine release by RBL-2H3 cells. […] The cell viability was measured at 24 h. […] We further measured the efficacy of SRS143 in a dose response study involving both efficacy and toxicity.

RBL-2H3 cells [5] = experiment: Cell viability (MTT) assay; type: cell-based
Experimental: as §1, §2, §3

[6] = tested on: HDM-induced asthmatic BALB/c mice; experiment: House dust mite allergic asthma mouse model, lung histology (H&E, PAS); type: in vivo
Experimental: as §4
(§5) Allergic asthma was induced using house dust mite (Dermatophagoides pteronyssinus, Lot Number: 253983, Greer Laboratories, Lenoir, USA). The HDM was dissolved and prepared to a concentration of 5000 µg/mL in PBS, and then it was aliquoted and frozen (−20 °C) for further use. […]
Isolated lungs were fixed in 10% neutral formalin and processed. […] (5 µm) were stained with H&E for inflammatory cell infiltration and Periodic Acid Schiff […] stain (PAS) for mucus production. Quantitative analysis under a light microscope was then performed. […]

[7] = tested on: HDM-induced asthmatic BALB/c mice; experiment: House dust mite allergic asthma mouse model, airway hyperresponsiveness to methacholine; type: in vivo; details: methacholine 2-32 mg/ml, n = 6
Experimental: as §4
as §5, with “use. A 14-day HDM model was used to induce asthma in Balb/c mice (Lim et al. [2016]). The animals were sub-anesthetized using a cocktail of ketamine (50 mg/kg) and xylazine (3.3 mg/kg) for the intranasal HDM sensitization and challenged protocol.” for “use.”

Akt phosphorylation = experiment: Immunoblotting of Akt phosphorylation in IgE-FcεRI activated mast cells; type: cell-based; details: IgE-FcεRI activated RBL-2H3 cells, 0.1, 1 and 10 µM, n = 3
Experimental: Nuclear proteins of RBL-2H3 cells (10 µg per lane) were separated by 10% SDS-PAGE and immunoblots were developed as described (Matsuda et al. [1994]). Immunoblots were probed with anti-AKT and anti-β-actin antibodies (all from Cell Signalling Technology, Beverly, MA).

[8] = Rattus norvegicus, 10 µM, 1 h, calcium ionophore A23187 activated RBL-2H3 cells, read-out: Inhibition of β-Hexosaminidase Enzyme Release (%)

SMILES: C=C1CC[C@@H]2[C@](C)(CO)[C@H](O)CC[C@@]2(C)[C@@H]1C/C=C1/C(=O)OC[C@H]1O [AGP, andrographolide]
viability at 1 h, 10 µM [1]: 81.3%
BAL fluid airway infiltration of all inflammatory leukocytes [2]: showed inhibition
Inhibition of β-Hexosaminidase Enzyme Release (%) (RBL-2H3 cells [3]; 10 µM, 1 h, calcium ionophore A23187 activated RBL-2H3 cells): low percentage inhibition level
inhibition at 10 µM (RBL-2H3 cells [3]; [8]): 11.1 ± 5.7%
In vitro antihistamine activity (RBL-2H3 cells [3]; calcium ionophore activated RBL-2h3 cells): did not show any in vitro antihistamine activity
In vitro antihistamine activity (RBL-2H3 cells [4]; DNP-IgE activated RBL-2h3 cells): did not show any in vitro antihistamine activity

SMILES: C=C1CCC2C(C)(CO)C(O)CCC2(C)C1C=CC1=CCOC1=O (centres unmarked) [DDAG, 14-deoxy-11,12-didehydroandrographolide]
Viability of RBL-2H3 Cells (%) (RBL-2H3 cells [5]; 10 µM, 1 h treatment, washed, viability measured at 24 h): 99.6%

SMILES: C[C@@H]1C[C@H]2[C@@H]3CCC4=CC(=O)C=C[C@]4(C)[C@@]3(F)[C@@H](O)C[C@]2(C)[C@@]1(O)C(=O)CO [Dexamethasone, dexamethasone, reference compound]
BAL fluid airway infiltration of all inflammatory leukocytes [2]: showed inhibition

SMILES: O=c1c(O)c(-c2ccc(O)c(O)c2)oc2cc(O)cc(O)c12 [Quercetin, quercetin, reference compound]
viability at 1 h, 50 µM ([1]; 50 µM): 106%
inhibition at 50 µM (RBL-2H3 cells [3]; Rattus norvegicus, 50 µM, 1 h, calcium ionophore A23187 activated RBL-2H3 cells, read-out: Inhibition of β-Hexosaminidase Enzyme Release (%)): 78.8 ± 8.5%

IC50 (RBL-2H3 cells [3]; Rattus norvegicus, RBL-2H3, calcium ionophore A23187 stimulation, 1 h (Fig. 4B), read-out: IC50, inhibition of β-hexosaminidase release): 6.5 µM
IC50 (RBL-2H3 cells [4]; Rattus norvegicus, RBL-2H3, IgE-FceRI stimulation, 1 h (Fig. 4C), 50% mark on concentration axis, read-out: IC50, inhibition of β-hexosaminidase release): 6.5 µM
SMILES: C=C1CCC2C3(C)COC(c4ccccc4)OC3CCC2(C)C1C/C=C1/C(=O)OCC1OC(C)=O (centres unmarked) [SRS143, 3,19-Benzylidene-14-acetylandrographolide]
Cytotoxicity on RBL-2H3 cells (RBL-2H3 cells [5]; 1 h, 24 h, and 24 h after washing at 1 h): only toxic if applied at the highest concentration of 100 µM
viability at 1 h, 10 µM [1]: 107%
BAL fluid total cells, macrophage, neutrophil, eosinophil and lymphocyte infiltration ([2]; 0.3, 1, 3 mg/kg i.p. 2 h before HDM challenge, vs HDM group): significant reduction; also recorded: dose-dependently reduced
Improved potency in inhibition of mast degranulation (RBL-2H3 cells [3]; 10 µM screening, the comparator is not given, presumably AGP): eightfold
inhibition at 30 µM (RBL-2H3 cells [3]; Rattus norvegicus, RBL-2H3, 30 µM, 1 h, dose-response study (Fig. 4B), read-out: Inhibition of enzyme release): ~97%
inhibition at 10 µM (RBL-2H3 cells [3]; [8]): 85.2 ± 3.1%
Peribronchial and perivascular inflammatory cellular infiltration in lung sections (H&E) ([6]; 0.3, 1, 3 mg/kg i.p., day 7-11): dose-dependently decreased
PAS-positive cells score (mucus, goblet metaplasia) ([6]; SRS143 i.p., HDM sensitized and challenged mice): between mild to no observable goblet metaplasia
Airway resistance (RI) in response to methacholine ([7]; 1 and 3 mg/kg i.p.): remarkable decrease
Dynamic compliance (Cdyn) in response to methacholine ([7]; SRS143 i.p.): no significant changes
Levels of phosphorylated-Akt (Akt phosphorylation): decrease significantly at the highest dose of 10 μM
